The results in this text go back to PMC12364708, “Structures and mechanism of the AUX/LAX transporters involved in auxin import” (Nature Plants, 2025).

Assay [1] deals with T1, LAX3 (residues 44–470) (Arabidopsis thaliana, UniProt Q9CA25).
T1 construct: N-terminally truncated, residues 44-470; C-terminal TEV site and His10 tag, cut with TEV; expressed in Saccharomyces cerevisiae DSY-5; LMNG/CHS; 47 kDa
T1 sequence (Q9CA25 44-470): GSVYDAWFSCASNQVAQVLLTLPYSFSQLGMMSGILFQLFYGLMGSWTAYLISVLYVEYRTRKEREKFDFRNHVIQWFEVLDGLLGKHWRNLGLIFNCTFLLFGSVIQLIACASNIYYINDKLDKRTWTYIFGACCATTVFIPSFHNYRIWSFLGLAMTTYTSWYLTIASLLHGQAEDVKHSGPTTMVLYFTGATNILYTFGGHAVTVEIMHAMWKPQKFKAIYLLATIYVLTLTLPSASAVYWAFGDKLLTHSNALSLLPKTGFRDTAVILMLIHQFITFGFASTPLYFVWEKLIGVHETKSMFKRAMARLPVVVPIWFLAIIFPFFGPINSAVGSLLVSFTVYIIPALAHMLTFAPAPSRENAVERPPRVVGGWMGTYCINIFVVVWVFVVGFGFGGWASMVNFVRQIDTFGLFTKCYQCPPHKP
Briefly: cryo-EM structure, […] Å. The note with it: pH 7.5; 5 mM 2-NOA; LMNG; central binding pocket, fully occluded.

Assay [2] has as its target T2, LAX3 (Arabidopsis thaliana, UniProt Q9CA25).
T2 construct: full-length wild type, cRNA injected into Xenopus laevis oocytes
T2 sequence (Q9CA25 1-470): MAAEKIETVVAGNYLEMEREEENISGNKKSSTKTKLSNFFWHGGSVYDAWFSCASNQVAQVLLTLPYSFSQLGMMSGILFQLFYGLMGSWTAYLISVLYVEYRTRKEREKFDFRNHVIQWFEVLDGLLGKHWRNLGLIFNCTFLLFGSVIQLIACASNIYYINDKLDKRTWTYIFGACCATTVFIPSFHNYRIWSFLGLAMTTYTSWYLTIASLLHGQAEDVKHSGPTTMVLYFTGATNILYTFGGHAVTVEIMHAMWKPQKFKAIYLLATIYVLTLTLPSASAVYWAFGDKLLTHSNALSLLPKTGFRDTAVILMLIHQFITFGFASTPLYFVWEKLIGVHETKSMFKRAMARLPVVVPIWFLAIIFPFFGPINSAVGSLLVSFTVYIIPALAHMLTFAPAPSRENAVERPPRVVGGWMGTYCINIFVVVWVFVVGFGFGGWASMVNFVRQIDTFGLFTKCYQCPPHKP
Briefly: competition with 3H-IAA uptake into Xenopus oocytes. In kind it is cell-based. The note with it: 100 nM 3H-IAA; pH 6, room temperature, 8 min; competitive.

In assay [3] the target is T1, LAX3 (residues 44–470). Briefly: cryo-EM structure, […] Å. The note with it: pH 7.5; 5 mM IAA; LMNG; central binding pocket, inward semi-occluded.

On to `O=C(O)COc1ccc2ccccc2c1` [2-NOA], for which the “cryo-EM structure, 2.88 Å” value in assay [1] is 2-NOA bound LAX3 fully occluded: PDB 9H63 and EMD-51896. Moreover, in assay [2], the “inhibition of IAA uptake at 10 μM” value was “these data demonstrate a competitive effect of all three compounds”.
Consider `O=C(O)Cc1c[nH]c2ccccc12` [IAA], for which the “cryo-EM structure, 3.21 Å” value in assay [3] is “IAA-bound LAX3 inward semi-occluded: PDB 9H61 and EMD-51894”.
In the case of `O=C(O)COc1ccc(Cl)cc1Cl` [2,4-D], in assay [2], the “inhibition of IAA uptake at 10 μM” value is given as “these data demonstrate a competitive effect of all three compounds”.
With `O=C(O)COc1cccc2ccccc12` [1-NOA], the “inhibition of IAA uptake at 10 μM” value in assay [2] is “these data demonstrate a competitive effect of all three compounds”.
